From patent US20090305954A1, “HISTIDINE-CONTAINING DIASTEREOMERIC PEPTIDES AND USES THEREOF” (Yeda Research and Development Co. Ltd., priority 2005, published 2009) come the findings set out here.

In brackets after ≈: the same amount, converted by molar mass. Read-outs that look alike come from different tables or passages of the source. Square brackets hold non-standard residues; d marks the D form. Peptide text beside a SMILES is read from it.

Series [1] in a line: XTT proliferation (cytotoxicity) assay, normal fibroblasts. The note with it: mouse, NIH-3T3 normal mouse fibroblasts, read-out: Lethal Concentration (LC50). It counts as cell-based, mouse. As for the experimental part:
(§1) The CL1 human prostate carcinoma (PC) cell line is an androgen-independent (AI) subclone of LNCaP cell line, which was generated by culturing androgen-dependent (AD) LNCaP cells in charcoal-stripped, […], as described (Patel et al. 2000). 22RV1 human PC cells are AI sub-clones of the AD prostatic adenocarcinoma CWR22 xenograft (Sramkoski et al. 1999). CL1 and 22RV1 (ATCC, USA) were grown in RPMI-1640 supplemented with 10% FCS (Biological Industries, Beit Haemek, Israel). PC3 and DU145 are androgen-insensitive (AI) (non-responsive), invasive human prostate cancer cell lines. NIH-3T3 mouse fibroblast cell lines (ATCC, USA) were grown in DMEM supplemented with 10% BS. Murine Lewis lung carcinoma (LLC) cell lines were also grown in DMEM medium supplemented with 10% fetal calf serum and antibiotics under the same conditions as above.
(§2) The anticancer activity of the diastereomers 1, 5 and 11-16, 36-39, 42 and 44 was examined against human CL1 prostate cancer, murine LLC (Lewis lung carcinoma), DU 145 and PC3 cell lines. The cell selectivity of the diastereomeric peptides was also studied by examining their effect on NIH-3T3 normal mouse fibroblasts cell line.
(§3) A 96-well plate (Falcon) was used for the XTT proliferation assay. Cancer cells were grown for 24 hours (day 1) in RPMI-1640 medium ([…] cells/100 μl for LLC, CL1, 22RVI, DU 145 and PC3, respectively) supplemented with 10% fetal calf serum and antibiotics, at 37° C., in humidified atmosphere at 5% CO2 and 95% air, resulting in growth medium pH of 7.4. NIH-3T3 fibroblast cells (1×10^4 cells/100 μl) were grown in DMEM medium supplemented with 10% bovine calf serum and antibiotics under the same conditions as described above for the cancerous cells. Wells in the last two rows served as blanks (medium only, for measuring the background color of the medium) and 100% survival controls (cells and medium only without treatment), respectively.
(§4) In day 2, the peptides were dissolved in sterile PBS to a concentration of 200 μM (or 500 μM). The medium in the assay wells was replaced with 100 μl serum free medium. For the assays at pH 6, the medium was initially concentrated (×5 or ×10) and then diluted with double distilled water and addition of sodium carbonate. Before reaching the correct dilution, the medium was adjusted to pH 6 and then more water was added to reach the final dilution. The cells were grown in physiological pH, and the acidic pH was used only during the 24 hours incubation with the peptides. A sign for the correct acidity was a light yellow color of the medium. In line A of the plate, 160 μl of serum free medium was added, if the initial peptide concentration was 500 μM.
(§5) Peptide solutions, 100 μl (or 40 μl) were added to each assay well in line A, such that the final concentration of the peptide was […] and the volume 200 μl. The medium in the wells was mixed with multichannel pipette 5 times and 100 μl of it were transferred to the next row of wells (line B), to give a peptide concentration of 50 μM. The double dilution of the peptides continued downstream the plate in the same manner. The plates were then incubated for 24 h.
(§6) In day 3, XTT reaction solution was prepared by adding to 100 μl aliquots of activation solution (sodium 3′-[1-(phenyl-aminocarbonyl)-3,4-tetrazolium]-bis(4-methoxy-6-nitro) benzene sulfonic acid hydrate and N-methyl dibenzopyrazine methyl sulfate; mixed in a proportion of 50:1) (protected from light and kept in −20° C.), the substrate. 50 μl of XTT reaction solution were added to each well and the plates were incubated for 2 hours (37° C. and 5% CO2+95% air. In cases the incubation was not enough for the creation of the color, it was extended for up to 24 hours). The optical density was read at wavelength of 450 nm in an ELISA plate reader. Cell viability was determined relative to the control and final results were recorded. The results were confirmed using replications in at least three independent experiments. […]
In general terms: Formazan colour is commonly taken as a measure of viable cells.

Series [2] relates to RFP-MDA-MB-231 breast cancer (BC) cells xenograft. The series is described as follows: Inhibition of tumor growth in breast cancer xenografts. The class given is in vivo, female SCID/NCr mice. The procedure:
RFP-MDA-MB-231 breast cancer (BC) cells were injected (5×10^6 cells in 0.1 ml PBS) into the left mammary fat pad of 8-week-old female SCID/NCr mice (NCI, USA) as previously described ([…] et al., 2004). […] Mice were weighed and tumor volume was measured by a caliper (expressed in weight units (mg) (Papo et al., 2003) twice a week for a period of 45 days. Monitoring of solid breast tumor and its derived metastases was done by in vivo fluorescence. Tumor fluorescence intensity was monitored in real time by using in vivo optical imaging system (IVIS) and was recorded once a week during the period of 38 days.

In series [3] the test system is CL1 human prostate carcinoma cell line. The series is described as follows: XTT proliferation (cytotoxicity) assay, CL1. The class given is cell-based. As for the experimental part: as §1, §2, §3, §4, §5, §6
In series [4] the test system is pepsin, trypsin, and elastase. The series is described as follows: Resistance to proteolytic digestion (reverse-phase HPLC). It counts as in vitro ADME. The note with it: after 2 hr, 140 μM peptide, 25 μM protease, 37° C. As for the experimental part:
In order to reach their target, the diastereomers have to withstand proteolytic digestion of proteases, which may occur after their administration and during the time until they reach the target site. The susceptibility of the peptides 13 and 14 to proteolytic digestion by pepsin (from porcine stomach mucosa, Sigma), trypsin (from bovine pancreas, Sigma), and elastase (from human leukocytes, Sigma) was assessed by reverse-phase HPLC. As a negative control, the all L-amino acid analog peptides were used. Equal amounts of the peptides were dissolved in PBS (35 mM phosphate buffer/0.15 M NaCl, pH 7.3) at a final concentration of 140 μM, to which 25 μM of protease were added. […] After the addition of the appropriate protease inhibitor to stop the reaction, aliquots were injected to C18 column and the amounts of the intact peptides 13 and 14 and their all L analogs were evaluated using their absorbance at 215 nm.

Series [5] can be described thus: Acute toxicity test in mice (intravenous). The class given is in vivo. The note with it: for mortality: mice, i.v., one dose per day for 2 days. The procedure:
Acute toxicity of peptides 1, 13 and 16 was examined by intravenously injecting mice (n=3), each with one dose per day for 2 days of 0.5 ml solution containing peptides 1, 13 or 16 at 3, 9, 15, 20 and 30 mg/kg of body weight.
A week after injecting the peptides, blood samples were taken from the survived mice. […] Thus, the peptides 13 and 16 of the invention are not toxic even when administered at concentrations considerably higher than those necessary for their anticancer activity.

Setting [6] is: 5 mg/kg systemically, three times a week, 9 doses.

As to `CC(C)C[C@H](NC(=O)[C@H](CC(C)C)NC(=O)[C@@H](CCCCN)NC(=O)[C@H](CC(C)C)NC(=O)[C@H](CC(C)C)NC(=O)[C@H](Cc1c[nH]cn1)NC(=O)[C@@H](CCCCN)NC(=O)[C@@H](CC(C)C)NC(=O)[C@H](CC(C)C)NC(=O)[C@@H](CCCCN)NC(=O)[C@H](Cc1c[nH]cn1)NC(=O)[C@H](CC(C)C)NC(=O)[C@@H](CC(C)C)NC(=O)[C@H](CCCCN)NC(=O)[C@@H](N)CC(C)C)C(N)=O` [Peptide 13] (H-LK[dL]LH[dK]L[dL][dK]HLL[dK]LL-NH2), the CC50 at 24 h in series [1] (NIH3T3, pH 6, 24 h) turned out to be 19 µg/mL (≈ 10.4 µM); in series [1] (NIH3T3, pH 7.4, 24 h) it was 50 µg/mL (≈ 27.4 µM). In addition, the “tumor fluorescence (IVIS)” value in series [2] (setting [6]) is “marked lowering”. Besides, in series [2] (setting [6]), the “tumor size (caliper measurements)” value is on record as “major reduction”. Besides, in series [2] (mouse, in vivo), the “body weight of the animals compared with vehicle-treated control group” value is reported as “increase”. Moreover, the condition of animals result in series [2] (throughout the assay period) was “good condition”. The “potency compared with diastereomer 1” value in series [3] (CL1, pH 6.0) is recorded as “similarly or significantly more potent”. The “Lethal Concentration (LC50)” value is 6.25 µg/mL in series [3] (CL1, pH 6, 24 h) and 6.25 µg/mL in series [3] (CL1, pH 7.4, 24 h). In series [4], this compound yielded a proteases digestion of around 50%. In addition, the mortality entry in series [5] (3 mg/kg) was “No mortality”; in series [5] (9 mg/kg) it was “No mortality”; in series [5] (15 mg/kg), “no mortality”; in series [5] (20 mg/kg), “no mortality”. In series [5] (survived mice, a week after injection), the “blood differential and biochemistry tests” value was “in the range of normal values”.
